Laboratory results taken from patent publication US6426067B1, “Angiogenic inhibitory compounds” (Biomolecular Research Institute, Ltd., priority 1996, dated 2002).

Test system: Chorioallantioic Membrane (CAM)
Assay type: in vivo
Settings: 50 μg/cam; BRI2995: surviving eggs
Protocol: The in vivo CAM angiogenesis model, initially described by Folkman (1985) and modified by Maragoudakis et al (1988) was used. Briefly, fresh fertilized eggs were incubated for 4 days at 37° C. when a window was opened on the egg shell exposing the CAM. The window was covered with cellophane tape and the eggs were returned to the incubator until day 9 when the test compounds were applied. The test compounds were placed on sterile plastic discs (10 mm) and were allowed to dry under sterile conditions. Control discs (containing PBS) were placed on the CAM 1 cm away from the discs containing the test material. A sterile solution of cortisone acetate (100 ug/disc, Sigma) was incorporated in all discs in order to prevent an inflammatory response. The loaded and dried discs were inverted and placed on the CAM, the windows were covered and the eggs incubated until day 11 when angiogenesis was assessed.
For morphological evaluation, eggs were treated as above. At day 11 the eggs were flooded with 10% buffered formalin (Janssen Chimica, Geel, Belguim), the plastic discs were removed and the eggs were kept at room temperature for at least 4 hours. At large area around the disc was cut off and placed on a glass slide, and the vascular density index (expressed as number of blood vessels) was measured by the method of Harris-Hooker et al (1983).

CO[C@@H]1[C@H](OC(=O)NC(=O)CCl)CC[C@]2(CO2)[C@H]1[C@@]1(C)O[C@@H]1CC=C(C)C [TNP-470]
inhibition (reduction) of vascular density: 21%±16
